Assay results: paper PMC6199744, “Development of Chemical Proteomics for the Folateome and Analysis of the Kinetoplastid Folateome” (ACS Infectious Diseases, 2018)

Tested on: L. major lysate proteins
Test: Multitargeted bead mixture chemoproteomics, single concentration competition, proteome-wide
Type: binding
Settings: for fold change: vehicle control = 1

Nc1nc2c(c(=O)[nH]1)N(C=O)C(CNc1ccc(C(=O)N[C@@H](CCC(=O)O)C(=O)O)cc1)CN2 (stereo partly drawn) [LEU, leucovorin]
fold change vs vehicle control (protein LMJF.15.0690 HY[…], CONSERVED): 1.14
fold change (protein LMJF.15.1010 GLUTAMATE DEHYDROGENASE): 0.98
fold change (protein LMJF.15.1190 HYPOTHETICAL PROTEIN, CONSERVED (cyclic nucleotide-binding domain containing protein, putative)): 0.96
fold change vs vehicle control (protein LMJF.16.0520 HYPOTHETICAL PROTEIN, CONSERVED): 1.1
fold change vs vehicle control (protein LMJF.16.0540 ASPARTATE CARBAMOYLTRANSFERASE, PUTATIVE): 0.98
fold change relative to vehicle control (protein LMJF.16.0760, TRANSALDOLASE, PUTATIVE): 1.22
fold change vs vehicle control (protein LMJF.16.0940 DYNEIN LIGHT CHAIN, PUTATIVE): 1.06
fold change relative to vehicle control (protein LMJF.16.1180, COATOMER DELTA SUBUNIT-LIKE PROTEIN): 1.21
fold change relative to vehicle control (protein LMJF.16.1320, CYTOCHROME C, PUTATIVE): 2.28
fold change relative to vehicle control (protein LMJF.16.1420, HY[…], CONSERVED): 1.01
fold change relative to vehicle control (protein LMJF.17.0081, […] 1-ALPHA): 1.09
fold change relative to vehicle control (protein LMJF.18.0270, GLYCOGEN SYNTHASE KINASE, PUTATIVE): 0.57
fold change (protein LMJF.18.0580 P[…]-COA HYDRATASE, PUTATIVE): 1.02
fold change relative to vehicle control (protein LMJF.18.0680, CITRATE SYNTHASE, PUTATIVE): 1.15
fold change vs vehicle control (protein LMJF.18.1010 DYNEIN LIGHT CHAIN 2B, CYTOPLASMIC, PUTATIVE): 0.99
fold change vs vehicle control (protein LMJF.18.1210 PROLYL-TRNA SYNTHETASE, PUTATIVE,BI[…]-TRNA SYNTHETASE, PUTATIVE): 1.38
fold change vs vehicle control (protein LMJF.18.1370 HEAT SHOCK PROTEIN, PUTATIVE): 0.99
fold change (protein LMJF.19.0200 ADP,ATP CARRIER PROTEIN 1, MIT[…], PUTATIVE): 1.01
fold change vs vehicle control (protein LMJF.19.1120 PROTEASOME REGULATORY NON-ATP-ASE SUBUNIT, PUTATIVE): 0.93
fold change vs vehicle control (protein LMJF.19.1160 HYPOTHETICAL PROTEIN, CONSERVED): 0.87
fold change vs vehicle control (protein LMJF.19.1560 INOSINE-5'-MONOPHOSPHATE DEHYDROGENASE): 1.06
fold change relative to vehicle control (protein LMJF.19.1620, POTASSIUM VOLTAGE-GATED CHANNEL, PUTATIVE): 1.08
fold change vs vehicle control (protein LMJF.20.1280 SMALL MYRISTOYLATED PROTEIN 4, PUTATIVE): 0.97
fold change (protein LMJF.21.0810 METHIONYL-TRNA SYNTHETASE, PUTATIVE): 1.03
fold change (protein LMJF.21.1450 ARGININE N-METHYLTRANSFERASE, TYPE II, PUTATIVE): 1.01
fold change vs vehicle control (protein LMJF.21.1830 […] 5 SUBUNIT, PUTATIVE,20S […] ALPHA 5, (PUTATIVE)): 1.06
fold change (protein LMJF.22.0230 AMINO ACID PERMEASE, PUTATIVE): 0.86
fold change vs vehicle control (protein LMJF.22.0570 PROTEASOME REGULATORY ATPASE SUBUNIT 1, PUTATIVE): 0.98
fold change vs vehicle control (protein LMJF.22.0730 HY[…], CONSERVED): 1.05
fold change (protein LMJF.22.0770 NADH-CYTOCHROME B5 REDUCTASE, PUTATIVE): 1.02
fold change relative to vehicle control (protein LMJF.23.0020, HY[…], CONSERVED): 1.09
fold change relative to vehicle control (protein LMJF.23.0040, PEROXIDOXIN): 1.41
fold change relative to vehicle control (protein LMJF.23.0080, HY[…], CONSERVED): 1.07
fold change (protein LMJF.23.0210 ATP-BINDING CASSETTE PROTEIN SUBFAMILY C, MEMBER 1, PUTATIVE): 0.88
fold change (protein LMJF.23.0370 CYTOCHROME C OXIDASE SUBUNIT 10, PUTATIVE): 0.88
fold change relative to vehicle control (protein LMJF.23.0540, ACETYL-COA SYNTHETASE, PUTATIVE): 1.24
fold change vs vehicle control (protein LMJF.23.0560 KINESIN, PUTATIVE): 1.03
fold change vs vehicle control (protein LMJF.23.1410 HY[…], CONSERVED): 1.01
fold change relative to vehicle control (protein LMJF.24.0070, HYPOTHETICAL PROTEIN, CONSERVED): 0.98
fold change (protein LMJF.24.0140 ANKYRIN/TPR REPEAT PROTEIN): 0.96
fold change (protein LMJF.24.0400 HY[…], CONSERVED (TPR repeat, putative)): 1.02
fold change relative to vehicle control (protein LMJF.24.1510, IGE-DEPENDENT HISTAMINE-RELEASING FACTOR, PUTATIVE): 1.54
fold change relative to vehicle control (protein LMJF.24.1630, SUCCINATE DEHYDROGENASE FLAVOPROTEIN, PUTATIVE): 1.06
fold change relative to vehicle control (protein LMJF.24.2060, TRANSKETOLASE): 0.92
fold change relative to vehicle control (protein LMJF.25.0010, BETA […] TRANSFERASE): 1.41
fold change relative to vehicle control (protein LMJF.25.0910, CYCLOPHILIN A): 2.65
fold change vs vehicle control (protein LMJF.25.1130 […] OXIDASE VII, PUTATIVE): 1.08
fold change relative to vehicle control (protein LMJF.25.1180, ATPASE BETA SUBUNIT, PUTATIVE): 1.04
fold change vs vehicle control (protein LMJF.25.1610 HY[…], CONSERVED): 1.03
fold change vs vehicle control (protein LMJF.25.1620 HYPOTHETICAL PROTEIN, CONSERVED): 0.97
fold change (protein LMJF.25.2340 SERINE/THREONINE-PROTEIN KINASE, PUTATIVE,PROTEIN KINASE, PUTATIVE): 0.76
fold change relative to vehicle control (protein LMJF.26.0630, HY[…], CONSERVED): 1.23
fold change vs vehicle control (protein LMJF.26.1240 HEAT SHOCK PROTEIN 70-RELATED PROTEIN): 1.1
fold change (protein LMJF.26.1710 CYTOCHROME C OXIDASE SUBUNIT V, PUTATIVE): 0.98
fold change vs vehicle control (protein LMJF.26.2480 CDP-DIACYLGLYCEROL--INOSITOL 3-PHOSPHATIDYLTRANSFERASE, PUTATIVE): 0.94
fold change vs vehicle control (protein LMJF.26.2560 HYPOTHETICAL PROTEIN, CONSERVED): 0.91
fold change vs vehicle control (protein LMJF.27.0190 […] 7 SUBUNIT, PUTATIVE): 1.06
fold change (protein LMJF.27.0650 HYPOTHETICAL PROTEIN, CONSERVED): 0.98
fold change (protein LMJF.27.0700 HYPOTHETICAL PROTEIN, CONSERVED): 0.69
fold change vs vehicle control (protein LMJF.27.0760 GTP-binding protein homologue): 1.15
fold change vs vehicle control (protein LMJF.27.1060 CYSTEINE DESULFURASE, PUTATIVE): 1.03
fold change vs vehicle control (protein LMJF.27.1110 MITOCHONDRIAL RNA BINDING PROTEIN 1,GBP21, MRP1): 0.96
fold change (protein LMJF.27.1250 HYPOTHETICAL PROTEIN, CONSERVED (Serine-threonine kinase receptor-associated protein, putative)): 0.88
fold change relative to vehicle control (protein LMJF.27.1390, 60S ACIDIC RIBOSOMAL SUBUNIT PROTEIN, PUTATIVE): 1.11
fold change (protein LMJF.27.1460 PROTEASOME REGULATORY NON-ATP-ASE SUBUNIT 3, PUTATIVE): 0.97
fold change vs vehicle control (protein LMJF.28.0110 […] 3 SUBUNIT, PUTATIVE): 1.08
